The MIC is the lowest concentration that inhibits growth of the organism.

Format in all cases: cell-based
Experiment [1] has as its system Streptococcus pneumoniae ATCC 49619. Briefly: Broth microdilution MIC, S. pneumoniae ATCC 49619. The note with it: ATCC49619, broth microdilution, 37° C., 20 hours, read-out: MIC S. pneumoniae ATCC 49619. From the text:
(§1) Bacteria tested are Staphylococcus aureus NRS384 (a methicillin-resistant Staphylococcus aureus, MRSA), Staphylococcus aureus ATCC 29213 (a methicillin-sensitive Staphylococcus aureus, MSSA), Streptococcus pneumoniae ATCC 49619, Enterococcus faecalis ATCC 29212, Enterococcus faecium ATCC 700221 (a vancomycin-resistant enterococcus, VRE), Bacillus subtilis ATCC 6633, and Escherichia coli ATCC 25922.
(§2) Staphylococcus aureus NRS384 was obtained from NARSA (Network on Antimicrobial Resistance in Staphylococcus aureus, now the strain collection is in BEI resources). Other bacterial isolates were from ATCC (The American Type Culture Collection). Upon receiving the bacteria samples from aforementioned institutes, the bacteria were cultured according to the manuals provided by the suppliers. The bacteria were stored in 25% glycerol (final concentration) at −80° C.
(§3) On the day of testing, the compounds were dissolved in pure DMSO (Sigma 276855-1L) to […] as stock. In a v-bottom 96-well plate (Axygen-wipp02280), 20 μl DMSO was added into well 2 to well 12 by manual pipetting. Into well 1, 12.8 μL of compound DMSO stock (20 mg/ml) was added and mixed with 27.2 μl DMSO by pipetting. Two fold serial dilutions were performed by transferring and mixing 20 μl of solution from well 1 to well 2, then well 2 to well 3 and so forth until well 11. The well 12 was loaded with 20 μl DMSO without compounds. This was drug ‘mother plate’. From well 1 to well 12, the drug concentrations in the mother plate were […] in DMSO. A multi-pipette was used to perform the serial dilutions. The concentration may be adjusted according to the potency of the compounds. An Echo® Acoustic liquid handling system may be used to replace manual pipetting to make the daughter plates.
(§4) One day prior to the day of MIC testing, bacterial strains were streaked out from −80° C. glycerol stocks onto MHA plates and incubated at 37° C. for 20 hours. Streptococcus pneumoniae was streaked on blood agar and incubated at 37° C. in 5% CO2. The single colonies were picked by using an inoculation loop (Greiner-731175) and suspended into 5 ml sterile saline. The turbidity of the suspension was adjusted to 0.10 (Siemens MicroScan turbidity meter), equal to ˜1.0×10^8 cfu/ml. The bacterial suspension was diluted 200× in corresponding test medium (Table 1). This was used to inoculate daughter plates.
(§5) For preparing u-bottom 96-well ‘daughter plates’ (Costar 3788), an aliquot of 1 μl solution from mother plate was then replicating transferred into the daughter plate using a multi-pipette.
(§6) An aliquot of 99 μl of the bacterial suspension was inoculated into each well of the daughter plates using a multi-pipette. Each well contained ˜5.0×10^5 cfu/ml bacteria, 1% DMSO and serially diluted compounds at 64, 32, 16, 8, 4, 2, 1, 0.5, 0.25, 0.125, 0.0625 and 0 μg/ml from well 1 to well 12 respectively, in 100 μl corresponding test medium.
(§7) The plates were incubated in ambient atmosphere and in a 37° C. incubator for 20 hours.
(§8) Compounds of the present invention were tested for antibacterial activity against a variety of bacterial organism including Bacillus subtilis, Staphylococcus aureus, Enterococcus faecalis, Enterococcus faecium, Streptococcus pneumoniae and Escherichia coli. […] Compounds described in Examples 2, 44, 53, 56, 90, 134, 212, 213, 214, 218, 222, 304, 305, and 307 had MIC of ≤1 μg/ml against S. aureus NRS 384 (MRSA) (μg/ml) and E. faecium ATCC 700221 (VRE) (μg/ml).
A general note: Dilution methods test growth across graded concentrations, often in twofold steps.

Experiment [2] concerns Escherichia coli ATCC 25922. Nature of the experiment: Broth microdilution MIC, E. coli ATCC 25922 (MHIIB w & w/o 4 mM EDTA). The note with it: broth microdilution, 37° C., 20 hours; for MIC: Escherichia coli, ATCC25922, without EDTA, read-out: MIC E. coli ATCC 25922; for MIC E. coli ATCC 25922 + 4 mM EDTA: with 4 mM EDTA.
Description: as §1, §2, §3, §4, §5, §6, §7, §8

In experiment [3] the test system is Enterococcus faecalis ATCC 29212. Briefly: Broth microdilution MIC, E. faecalis ATCC 29212. The note with it: ATCC29212, broth microdilution, 37° C., 20 hours, read-out: MIC E. faecalis ATCC 29212.
Description: as §1, §2, §3, §4, §5, §6, §7, §8

Experiment [4] concerns Staphylococcus aureus ATCC 29213 (MSSA). Nature of the experiment: Broth microdilution MIC, S. aureus ATCC 29213 (MSSA). The note with it: broth microdilution, 37° C., 20 hours, read-out: MIC S. aureus ATCC 29213 (MSSA).
Description: as §1, §2, §3, §4, §5, §6, §7, §8

In experiment [5] the test system is Bacillus subtilis ATCC 6633. Briefly: Broth microdilution MIC, B. subtilis ATCC 6633. The note with it: ATCC6633, broth microdilution, 37° C., 20 hours, read-out: MIC B. subtilis ATCC 6633.
Description: as §1, §2, §3, §4, §5, §6, §7, §8

The subject of experiment [6] is Staphylococcus aureus NRS384 (MRSA). Briefly: Broth microdilution MIC, S. aureus NRS384 (MRSA). The settings on record: Staphylococcus aureus; broth microdilution, 37° C., 20 hours; read-out: MIC NRS 384 (MRSA).
Description: as §1, §2, §3, §4, §5, §6, §7, §8

In experiment [7] the test system is Enterococcus faecium ATCC 700221 (VRE). Briefly: Broth microdilution MIC, E. faecium ATCC 700221 (VRE). The note with it: Enterococcus faecium; broth microdilution, 37° C., 20 hours; read-out: MIC E. faecium ATCC 700221 (VRE).
Description: as §1, §2, §3, §4, §5, §6, §7, §8

In brackets after ≈: the same amount, converted by molar mass.

For `Cn1ncc2nc(NCc3ccccc3Cl)[nH]c(=O)c21` [Compound 27, 5-((2-Chlorobenzyl)amino)-1-methyl-1H-pyrazolo[4,3-d]pyrimidin-7(6H)-one], the MIC in experiment [1], in experiment [2], in experiment [3], in experiment [4], in experiment [5] and in experiment [6] was over 64 µg/mL in each case. Also, the MIC in experiment [7] was over 64 µg/mL. Moreover, in experiment [2], the “MIC E. coli ATCC 25922 + 4 mM EDTA” value is 64 µg/mL.
As for `Cn1ncc2nc(NCc3ccc(Cl)cc3Cl)[nH]c(=O)c21` [Compound 28, 5-((2,4-Dichlorobenzyl)amino)-1-methyl-1H-pyrazolo[4,3-d]pyrimidin-7(6H)-one], the MIC in experiment [1] was 64 µg/mL (≈ 197 µM); in experiment [2], over 64 µg/mL; in experiment [3] it was over 64 µg/mL; in experiment [4], over 64 µg/mL; in experiment [5] it was 64 µg/mL (≈ 197 µM); in experiment [6], over 64 µg/mL. Also, the MIC in experiment [7] is 16 µg/mL (≈ 49.4 µM). Moreover, in experiment [2], the “MIC E. coli ATCC 25922 + 4 mM EDTA” value amounted to 64 µg/mL.
As for `Cn1ncc2nc(NCc3cccc(Cl)c3Cl)[nH]c(=O)c21` [Compound 29, 5-((2,3-Dichlorobenzyl)amino)-1-methyl-1H-pyrazolo[4,3-d]pyrimidin-7(6H)-one], the MIC in experiment [1], in experiment [2], in experiment [3], in experiment [4], in experiment [5] and in experiment [6] was over 64 µg/mL throughout. In experiment [7], the MIC is over 64 µg/mL. In addition, the “MIC E. coli ATCC 25922 + 4 mM EDTA” value in experiment [2] was over 64 µg/mL.
With `Cn1ncc2nc(NCc3c(Cl)cccc3Cl)[nH]c(=O)c21` [Compound 30, 5-((2,6-Dichlorobenzyl)amino)-1-methyl-1H-pyrazolo[4,3-d]pyrimidin-7(6H)-one], the MIC in experiment [1], in experiment [2], in experiment [3], in experiment [4], in experiment [5] and in experiment [6] was over 64 µg/mL in each case. Besides, the MIC in experiment [7] is over 64 µg/mL. Moreover, the “MIC E. coli ATCC 25922 + 4 mM EDTA” value in experiment [2] was over 64 µg/mL.
On to `Cc1ccc(CNc2nc3cnn(C)c3c(=O)[nH]2)cc1Cl` [Compound 31, 5-((3-Chloro-4-methylbenzyl)amino)-1-methyl-1H-pyrazolo[4,3-d]pyrimidin-7(6H)-one], for which the MIC is 8 µg/mL (≈ 26.3 µM) in experiment [1]; over 64 µg/mL in experiment [2]; 8 µg/mL (≈ 26.3 µM) in experiment [3]; 4 µg/mL (≈ 13.2 µM) in experiment [4]; 2 µg/mL (≈ 6.58 µM) in experiment [5]; 4 µg/mL (≈ 13.2 µM) in experiment [6]. In experiment [7], the MIC stood at 4 µg/mL (≈ 13.2 µM). Moreover, the “MIC E. coli ATCC 25922 + 4 mM EDTA” value in experiment [2] is 16 µg/mL.
`COc1ccc(CNc2nc3cnn(C)c3c(=O)[nH]2)cc1OC` [Compound 32, 5-((3,4-Dimethoxybenzyl)amino)-1-methyl-1H-pyrazolo[4,3-d]pyrimidin-7(6H)-one]: the MIC in experiment [1], in experiment [2], in experiment [3], in experiment [4], in experiment [5] and in experiment [6] was over 64 µg/mL each time. Besides, the MIC in experiment [7] is over 64 µg/mL. The “MIC E. coli ATCC 25922 + 4 mM EDTA” value in experiment [2] is over 64 µg/mL.
`Cc1ccc(CNc2nc3cnn(C)c3c(=O)[nH]2)cc1C` [Compound 33, 5-((3,4-Dimethylbenzyl)amino)-1-methyl-1H-pyrazolo[4,3-d]pyrimidin-7(6H)-one]: the MIC in experiment [1] is 16 µg/mL (≈ 56.5 µM); in experiment [2], over 64 µg/mL; in experiment [3], 32 µg/mL (≈ 113 µM); in experiment [4], 16 µg/mL (≈ 56.5 µM); in experiment [5] it was 8 µg/mL (≈ 28.2 µM); in experiment [6], 16 µg/mL (≈ 56.5 µM). In addition, in experiment [7], the MIC stood at 16 µg/mL (≈ 56.5 µM). Besides, the “MIC E. coli ATCC 25922 + 4 mM EDTA” value in experiment [2] was over 64 µg/mL.
As to `COc1cc(CNc2nc3cnn(C)c3c(=O)[nH]2)ccc1Cl` [Compound 34, 5-((4-Chloro-3-methoxybenzyl)amino)-1-methyl-1H-pyrazolo[4,3-d]pyrimidin-7(6H)-one], the MIC in experiment [1] is 64 µg/mL (≈ 200 µM); in experiment [2], over 64 µg/mL; in experiment [3], over 64 µg/mL; in experiment [4], over 64 µg/mL; in experiment [5], over 64 µg/mL; in experiment [6] it was over 64 µg/mL. Besides, in experiment [7], the MIC was over 64 µg/mL. The “MIC E. coli ATCC 25922 + 4 mM EDTA” value in experiment [2] was over 64 µg/mL.
`Cc1cc(CNc2nc3cnn(C)c3c(=O)[nH]2)ccc1Cl` [Compound 35, 5-((4-Chloro-3-methylbenzyl)amino)-1-methyl-1H-pyrazolo[4,3-d]pyrimidin-7(6H)-one]: the MIC in experiment [1] was 4 µg/mL (≈ 13.2 µM); in experiment [2], over 64 µg/mL; in experiment [3] it was 8 µg/mL (≈ 26.3 µM); in experiment [4] it was 4 µg/mL (≈ 13.2 µM); in experiment [5], 2 µg/mL (≈ 6.58 µM); in experiment [6], 2 µg/mL (≈ 6.58 µM). Also, the MIC in experiment [7] amounted to 4 µg/mL (≈ 13.2 µM). Moreover, the “MIC E. coli ATCC 25922 + 4 mM EDTA” value in experiment [2] was over 64 µg/mL.
As to `Cn1ncc2nc(NCc3cc(Cl)c(Cl)cn3)[nH]c(=O)c21.O=C(O)C(F)(F)F` [Compound 36, 5-(((4,5-Dichloropyridin-2-yl)methyl)amino)-1-methyl-1H-pyrazolo[4,3-d]pyrimidin-7(6H)-one-2,2,2-trifluoroacetate], the MIC in experiment [1], in experiment [2], in experiment [3], in experiment [4], in experiment [5] and in experiment [6] was over 64 µg/mL throughout. Moreover, the MIC in experiment [7] is over 64 µg/mL. Further, the “MIC E. coli ATCC 25922 + 4 mM EDTA” value in experiment [2] was over 64 µg/mL.
Consider `Cn1ncc2nc(NCc3nc(Cl)c(Cl)[nH]3)[nH]c(=O)c21` [Compound 37, 5-(((4,5-Dichloro-1H-imidazol-2-yl)methyl)amino)-1-methyl-1H-pyrazolo[4,3-d]pyrimidin-7(6H)-one], for which the MIC in experiment [1], in experiment [2], in experiment [3], in experiment [4], in experiment [5] and in experiment [6] was over 64 µg/mL each time. For the same compound, the MIC in experiment [7] was over 64 µg/mL. The “MIC E. coli ATCC 25922 + 4 mM EDTA” value in experiment [2] is over 64 µg/mL.
As to `CCc1[nH]c(CNc2nc3cnn(C)c3c(=O)[nH]2)nc1Cl.Cl` [Compound 38, 5-(((4-Chloro-5-ethyl-1H-imidazol-2-yl)methyl)amino)-1-methyl-1H-pyrazolo[4,3-d]pyrimidin-7(6H)-one hydrochloride], the MIC in experiment [1], in experiment [2], in experiment [3], in experiment [4], in experiment [5] and in experiment [6] was over 64 µg/mL throughout. In experiment [7], the MIC was over 64 µg/mL. In experiment [2], the “MIC E. coli ATCC 25922 + 4 mM EDTA” value was over 64 µg/mL.

The values above are taken from US10723741B1, “DNA polymerase IIIC inhibitors and use thereof” (Acurx Pharmaceuticals, LLC, priority 2018, dated 2020).
